From patent publication US20130296413A1, “N-DESMETHYL-DOXEPIN AND METHODS OF USING THE SAME TO TREAT SLEEP DISORDERS” (Procom One, Inc., priority 2006, published 2013)

Legend:
[1] = system: patient suffering from chronic insomnia; assay: Treatment of a patient with chronic insomnia; assay type: in vivo, human
From the text: A patient suffers from chronic insomnia. The patient is otherwise healthy with normal affect with no depression, anxiety or substance overuse. The patient is prescribed desmethyldoxepin in a daily dosage of 2 milligrams prior to bedtime.
A patient suffers from chronic insomnia. The patient also suffers from depression. The patient is prescribed desmethyldoxepin in a daily dosage of 1 milligram prior to bedtime.
A patient suffers from chronic insomnia. The patient also suffers from depression. The patient is prescribed desmethyldoxepin in a daily dosage of 2 milligrams prior to bedtime.
A patient suffers from chronic insomnia. The patient is otherwise healthy with normal affect with no depression, anxiety or substance overuse. The patient is prescribed desmethyldoxepin in a daily dosage of 5 milligrams prior to bedtime.
A patient suffers from chronic insomnia. The patient also suffers from depression. The patient is prescribed desmethyldoxepin in a daily dosage of 5 milligrams prior to bedtime.
A patient suffers from chronic insomnia. The patient is otherwise healthy with normal affect with no depression, anxiety or substance overuse. The patient is prescribed desmethyldoxepin in a daily dosage of 10 milligrams prior to bedtime.
A patient suffers from chronic insomnia. The patient also suffers from depression. The patient is prescribed desmethyldoxepin in a daily dosage of 10 milligrams prior to bedtime.
A patient suffers from chronic insomnia. The patient is otherwise healthy with normal affect with no depression, anxiety or substance overuse. The patient is prescribed desmethyldoxepin in a daily dosage of 20 milligrams prior to bedtime.
A patient suffers from chronic insomnia. The patient also suffers from depression. The patient is prescribed desmethyldoxepin in a daily dosage of 20 milligrams prior to bedtime.
A patient suffers from chronic insomnia. The patient is otherwise healthy with normal affect with no depression, anxiety or substance overuse. The patient is prescribed desmethyldoxepin in a daily dosage of 150 milligrams prior to bedtime.
A patient suffers from chronic insomnia. The patient also suffers from depression. The patient is prescribed desmethyldoxepin in a daily dosage of 150 milligrams prior to bedtime.

[2] = system: patient suffering from transient or short term insomnia; assay: Treatment of a patient with transient or short term insomnia; assay type: in vivo, human
From the text: A patient suffers from transient or short term insomnia. The patient is otherwise healthy with normal affect with no depression, anxiety or substance overuse. The patient is prescribed desmethyldoxepin in a daily dosage of 1 milligram, prior to bedtime.
A patient suffers from transient or short term insomnia. The patient is otherwise healthy with normal affect with no depression, anxiety or substance overuse. The patient is prescribed desmethyldoxepin in a daily dosage of 2 milligrams, prior to bedtime.
A patient suffers from transient or short term insomnia. The patient also suffers from depression. The patient is prescribed desmethyldoxepin in a daily dosage of 2 milligrams, prior to bedtime.
A patient suffers from transient or short term insomnia. The patient is otherwise healthy with normal affect with no depression, anxiety or substance overuse. The patient is prescribed desmethyldoxepin in a daily dosage of 5 milligrams, prior to bedtime.
A patient suffers from transient or short term insomnia. The patient also suffers from depression. The patient is prescribed desmethyldoxepin in a daily dosage of 5 milligrams, prior to bedtime.
A patient suffers from transient or short term insomnia. The patient is otherwise healthy with normal affect with no depression, anxiety or substance overuse. The patient is prescribed desmethyldoxepin in a daily dosage of 10 milligrams, prior to bedtime.
A patient suffers from transient or short term insomnia. The patient also suffers from depression. The patient is prescribed desmethyldoxepin in a daily dosage of 10 milligrams, prior to bedtime.
A patient suffers from transient or short term insomnia. The patient is otherwise healthy with normal affect with no depression, anxiety or substance overuse. The patient is prescribed desmethyldoxepin in a daily dosage of 20 milligrams prior to bedtime.
A patient suffers from transient or short term insomnia. The patient also suffers from depression. The patient is prescribed desmethyldoxepin in a daily dosage of […] prior to bedtime.
A patient suffers from transient or short term insomnia. The patient is otherwise healthy with normal affect with no depression, anxiety or substance overuse. The patient is prescribed desmethyldoxepin in a daily dosage of 150 milligrams prior to bedtime.
A patient suffers from transient or short term insomnia. The patient also suffers from depression. The patient is prescribed desmethyldoxepin in a daily dosage of 150 milligrams prior to bedtime.

[3] = daily dosage of 2 milligrams prior to bedtime, patient also suffers from depression
[4] = daily dosage of 2 milligrams prior to bedtime, patient otherwise healthy, no depression, anxiety or substance overuse
[5] = daily dosage of 5 milligrams prior to bedtime, patient also suffers from depression
[6] = daily dosage of 5 milligrams prior to bedtime, patient otherwise healthy, no depression, anxiety or substance overuse
[7] = daily dosage of 10 milligrams prior to bedtime, patient also suffers from depression
[8] = daily dosage of 10 milligrams prior to bedtime, patient otherwise healthy, no depression, anxiety or substance overuse
[9] = daily dosage of 20 milligrams prior to bedtime, patient otherwise healthy, no depression, anxiety or substance overuse
[10] = daily dosage of 150 milligrams prior to bedtime, patient also suffers from depression
[11] = daily dosage of 150 milligrams prior to bedtime, patient otherwise healthy, no depression, anxiety or substance overuse

Measured: relief of insomnia

CNCC/C=C1/c2ccccc2COc2ccccc21 [desmethyldoxepin, Desmethyldoxepin]
relieves the insomnia: [1]; daily dosage of 1 milligram prior to bedtime, patient also suffers from depression | [1]; [3] | [1]; [4] | [1]; [5] | [1]; [6] | [1]; [7] | [1]; [8] | [1]; daily dosage of 20 milligrams prior to bedtime, patient also suffers from depression | [1]; [9] | [1]; [10] | [1]; [11] | [2]; daily dosage of 1 milligram prior to bedtime, patient otherwise healthy, no depression, anxiety or substance overuse | [2]; [3] | [2]; [4] | [2]; [5] | [2]; [6] | [2]; [7] | [2]; [8] | [2]; [9] | [2]; daily dosage of 20 prior to bedtime, patient also suffers from depression | [2]; [10] | [2]; [11]
